The text below walks through data of publication PMC7248426 (Translational Oncology, 2020).

One test deals with five colon cancer cells. The test can be described thus: FITC-labeled peptide immunofluorescence assay, colon cancer cells. The test is classed as cell-based, human. The following applies: fluorescein-labeled peptide, 10 μM, 1 hour at RT, Figure 1B.
Another test relates to CCD841 cells. The test can be described thus: FITC-labeled peptide immunofluorescence assay, control cells. The test is classed as cell-based, human. Conditions: fluorescein-labeled peptide, 10 μM, 1 hour at RT, Figure 1B.
In test [1] the test system is five colon cancer cell lines. The test can be described thus: Flow cytometry. The test is classed as cell-based, human. The following applies: FITC-L20 10 μM, 1 hour at RT, all colon cancer cells, Figure 1C. Background: In flow cytometry, cells or beads pass a laser one at a time.
Test [2] has as its system gastric cancer cells including AGS, SNU216, and SNU638. Description: L20 peptide binding to gastric cancer cells. The following applies: Figure 1D. It is filed as cell-based.

Turning to ANLNLWTDYIRW [L20 peptide], the “fluorescence on colon cancer cells” value in the test on five colon cancer cells is on record as “very intense fluorescence”. The “fluorescence on the control cell line” value in the test with CCD841 cells is recorded as “negligible”. Besides, the “FACS fluorescence compared to the control peptide” value in test [1] is on record as “right shift of fluorescence”. In addition, the “fluorescence in gastric cancer cell lines compared to the control cells” value in test [2] is reported as “did not show higher fluorescence”.
